Test results taken from US8546615B2, “Solid dapoxetine” (Symed Labs Limited, priority 2009, dated 2013).

Experiment: Storage/thermal stability of the solid form
Assay type: physicochemical
Conditions: stable for any period of time, no test described

Row | Structure (SMILES) | temperature below which the solid is stable
1 | CN(C)[C@@H](CCOc1cccc2ccccc12)c1ccccc1 (racemic) [solid racemic dapoxetine] | below 45 °C
2 | CN(C)[C@@H](CCOc1cccc2ccccc12)c1ccccc1 (single isomer, unassigned) [solid dapoxetine S enantiomer] | below 60 °C
